# From paper PMC6491818, “Novel 4-Acrylamido-Quinoline Derivatives as Potent PI3K/mTOR Dual Inhibitors: The Design, Synthesis, and in vitro and in vivo Biological Evaluation” (Frontiers in Chemistry, 2019)
# Entries after “also recorded” stand apart in the source; their conditions may differ.
# What was measured:
# PI3Kδ = PI3Kδ (Homo sapiens, UniProt O00329); assay: PI3Kδ enzymatic assay (ADP-Glo Luminescent assay); type: biochemical
# Description: (§2) Kinase-Glo Luminescent Kinase assay (Promega) was performed to determine the PI3Kα inhibitory activity, while ADP-Glo Luminescent assay (Promega) was performed to identify the inhibitory activity against PI3Kβ, γ, or δ. The kinase buffer was composed of HEPES (50 mM, pH 7.5), MgCl2 (3 mM), EGTA (1 mM), NaCl (100 mM), CHAPS (0.03%) and DTT (2 mM). The serially diluted compound solutions (2.5 mL) were successively added to a 384-well plate. Afterwards, the solution of kinase (2.5 mL) in the kinase buffer and the solution of substrate (5 mL) in the kinase buffer containing PIP2 and ATP were added to each well of the assay plate for starting the reaction. Kinase buffer was added instead to the control well without enzyme. […] After being incubated at room temperature for 1 h, Kinase-Glo reagent (10 mL) was added to each well of the PI3Kα assay plate to quench the reaction. […] The mixture was treated briefly with centrifuge, shaken slowly, and equilibrated for 40 min. Kinase Detection reagent (10 mL) was added to each well. Before reading on a plate reader for luminescence, the resultant mixture was incubated at room temperature for 1 h. After calculating the percent inhibition from the RLU values, the curves were fitted in Graphpad Prism 5 to give IC50 values.
# [1] = Liver microsomal stability assay, HLM; conditions: human, liver microsomes
# [2] = Pharmacokinetic study in SD rats, oral; type: in vivo; conditions: Sprague-Dawley, rat, plasma, 5 mg/kg
# Description: SD rats were utilized for the PK study of 8i following oral gavage at the dosage of 5 mg/kg, and the oral dose was formulated in a homogenous opaque suspension of 0.5% methylcellulose. This experiment was performed with the protocol disclosed in our previous work (Zhang et al., [2017b]). The study was carried out in accordance with institutional guidelines of the Animal Research Committee at Jiaxing University (log number JXU2015120812). The protocol was approved by the institution.
# PI3Kβ = PI3Kβ (Homo sapiens, UniProt P42338); assay: PI3Kβ enzymatic assay (ADP-Glo Luminescent assay); type: biochemical
# Sequence of PI3Kβ (P42338 whole entry): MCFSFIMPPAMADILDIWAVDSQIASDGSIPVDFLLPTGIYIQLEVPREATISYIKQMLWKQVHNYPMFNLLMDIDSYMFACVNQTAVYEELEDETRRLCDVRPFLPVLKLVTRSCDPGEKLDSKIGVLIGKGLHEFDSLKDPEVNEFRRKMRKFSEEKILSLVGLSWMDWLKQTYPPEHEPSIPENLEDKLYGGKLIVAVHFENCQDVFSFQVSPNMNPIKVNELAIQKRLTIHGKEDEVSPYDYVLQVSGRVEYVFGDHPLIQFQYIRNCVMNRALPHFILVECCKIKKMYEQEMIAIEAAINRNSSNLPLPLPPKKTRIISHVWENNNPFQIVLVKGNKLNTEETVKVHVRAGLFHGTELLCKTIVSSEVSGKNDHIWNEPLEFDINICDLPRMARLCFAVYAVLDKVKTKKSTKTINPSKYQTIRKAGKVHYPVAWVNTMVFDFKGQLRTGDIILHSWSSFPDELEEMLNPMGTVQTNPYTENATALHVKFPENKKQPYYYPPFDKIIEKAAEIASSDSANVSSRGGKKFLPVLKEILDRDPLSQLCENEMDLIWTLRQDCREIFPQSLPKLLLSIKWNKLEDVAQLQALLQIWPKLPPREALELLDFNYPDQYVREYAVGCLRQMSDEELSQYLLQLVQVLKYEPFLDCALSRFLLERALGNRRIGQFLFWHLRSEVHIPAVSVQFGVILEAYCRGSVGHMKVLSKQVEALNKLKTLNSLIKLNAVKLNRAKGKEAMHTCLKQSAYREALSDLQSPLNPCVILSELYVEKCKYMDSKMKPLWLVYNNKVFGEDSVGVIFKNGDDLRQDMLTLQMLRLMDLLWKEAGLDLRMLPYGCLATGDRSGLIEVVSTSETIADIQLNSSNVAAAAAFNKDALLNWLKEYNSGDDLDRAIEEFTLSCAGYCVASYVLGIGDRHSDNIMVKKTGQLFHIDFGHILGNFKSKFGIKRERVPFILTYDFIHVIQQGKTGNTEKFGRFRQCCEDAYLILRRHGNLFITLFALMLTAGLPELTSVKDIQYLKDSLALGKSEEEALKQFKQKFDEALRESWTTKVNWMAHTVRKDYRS
# Sequence of PI3Kβ (P27986 whole entry partner): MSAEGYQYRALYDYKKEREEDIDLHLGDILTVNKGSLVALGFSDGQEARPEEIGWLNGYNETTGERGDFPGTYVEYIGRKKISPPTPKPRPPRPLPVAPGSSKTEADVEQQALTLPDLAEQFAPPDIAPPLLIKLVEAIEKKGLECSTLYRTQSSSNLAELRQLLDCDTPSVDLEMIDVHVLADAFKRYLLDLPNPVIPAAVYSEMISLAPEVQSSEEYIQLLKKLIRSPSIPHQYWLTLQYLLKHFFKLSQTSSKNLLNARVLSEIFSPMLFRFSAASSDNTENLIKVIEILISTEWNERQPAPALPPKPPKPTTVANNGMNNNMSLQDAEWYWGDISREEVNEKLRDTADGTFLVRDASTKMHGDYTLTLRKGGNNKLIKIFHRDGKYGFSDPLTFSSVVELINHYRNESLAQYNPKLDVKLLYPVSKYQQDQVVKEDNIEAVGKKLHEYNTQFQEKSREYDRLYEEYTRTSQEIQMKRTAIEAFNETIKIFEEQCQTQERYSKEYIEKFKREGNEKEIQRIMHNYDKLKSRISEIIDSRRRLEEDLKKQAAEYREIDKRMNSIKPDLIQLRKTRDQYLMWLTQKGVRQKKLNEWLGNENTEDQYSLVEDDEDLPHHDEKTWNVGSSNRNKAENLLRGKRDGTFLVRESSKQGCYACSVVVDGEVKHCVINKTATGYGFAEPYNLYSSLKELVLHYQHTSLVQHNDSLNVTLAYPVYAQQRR
# Description: as §2
# [3] = Liver microsomal stability assay, RLM; conditions: Sprague-Dawley, rat, liver microsomes
# PI3Ks and mTOR = assay: Enzymatic activity against PI3Ks and mTOR (summary over all tested enzymes); type: biochemical; conditions: PI3Kα, PI3Kβ, PI3Kγ, PI3Kδ and mTOR
# Description: Kinase-Glo Luminescent Kinase assay (Promega) was performed to determine the PI3Kα inhibitory activity, while ADP-Glo Luminescent assay (Promega) was performed to identify the inhibitory activity against PI3Kβ, γ, or δ. The kinase buffer was composed of HEPES (50 mM, pH 7.5), MgCl2 (3 mM), EGTA (1 mM), NaCl (100 mM), CHAPS (0.03%) and DTT (2 mM). The serially diluted compound solutions […] were successively added to a 384-well plate. Afterwards, the solution of kinase […] in the kinase buffer and the solution of substrate (5 mL) in the kinase buffer containing PIP2 and ATP were added to each well of the assay plate for starting the reaction. Kinase buffer was added instead to the control well without enzyme. The final concentrations of PI3Kα, PI3Kβ, PI3Kγ, PI3Kδ, PIP2, and ATP in corresponding kinase reaction mixture were 1.65 nM, 4.8 nM, 7.6 nM, 5.7 nM, […], respectively. […] Subsequently, the mixture needs to be mixed briefly with centrifuge and shaken slowly for 15 min before being read on a plate reader for luminescence. […] Before reading on a plate reader for luminescence, the resultant mixture was incubated at room temperature for 1 h. […]
# Lance Ultra assay was performed to determine the mTOR (1362-end, Millipore) inhibitory activity. […] Before reading on a plate reader, the mixture needs to be mixed briefly with centrifuge and then allowed to equilibrate for 1 h. […]
# [4] = molecular target: mTOR (1362-end, Millipore) (Homo sapiens, UniProt P42345); assay: mTOR enzymatic assay (Lance Ultra assay); type: biochemical
# Description: The kinase buffer was composed of HEPES (50 mM, pH 7.5), MgCl2 (10 mM), EGTA (1 mM), MnCl2 (3 mM), Tween-20 (0.01%) and DTT (2 mM). The solution of substrate in the kinase buffer contained ULight-4E-BP1 peptide (Thr37/46, PE) and ATP. […] After being incubated at room temperature for 1 h, kinase detection buffer (10 mL) containing EDTA and Eu-anti-phospho-4E-BP1 antibody (Thr37/46, PE) was added to each well of the assay plate. Before reading on a plate reader, the mixture needs to be mixed briefly with centrifuge and then allowed to equilibrate for 1 h. After calculating the percent inhibition from Lance signal, the curves were fitted in Graphpad Prism 5 to give IC50 values.
# [5] = test system: prostate cancer PC3 cell line; assay: Anti-proliferative SRB assay, PC3; type: cell-based; conditions: PC3 cells, 72 h exposure
# Description: (§1) The anti-proliferative activity of compounds was evaluated by sulforhodamin B (SRB) assay. After being cultured for 10 h, cells in 96-well plates were subjected to 72 h-exposure to serially diluted compound solutions. Cells were washed with PBS and fixed with trichloroacetic acid (10%, W/V) at 4°C for 1 h. Then, cells were successively washed with PBS, stained for 0.5 h with SRB (0.4%, dissolved in 1% acetic acid), and washed by 1% acetic acid for 5 times. Protein-bound dye was extracted with unbuffered Tris base (10 mmol). After calculating the percent inhibition from absorbance, measured at 515 nm with a multiscan spectrum (Thermo Electron Co., Vantaa, Finland), the curves were fitted in Graphpad Prism 5 to give GI50 values.
# PI3Kγ = PI3Kγ (Homo sapiens, UniProt P48736); assay: PI3Kγ enzymatic assay (ADP-Glo Luminescent assay); type: biochemical
# Sequence of PI3Kγ (P48736 whole entry): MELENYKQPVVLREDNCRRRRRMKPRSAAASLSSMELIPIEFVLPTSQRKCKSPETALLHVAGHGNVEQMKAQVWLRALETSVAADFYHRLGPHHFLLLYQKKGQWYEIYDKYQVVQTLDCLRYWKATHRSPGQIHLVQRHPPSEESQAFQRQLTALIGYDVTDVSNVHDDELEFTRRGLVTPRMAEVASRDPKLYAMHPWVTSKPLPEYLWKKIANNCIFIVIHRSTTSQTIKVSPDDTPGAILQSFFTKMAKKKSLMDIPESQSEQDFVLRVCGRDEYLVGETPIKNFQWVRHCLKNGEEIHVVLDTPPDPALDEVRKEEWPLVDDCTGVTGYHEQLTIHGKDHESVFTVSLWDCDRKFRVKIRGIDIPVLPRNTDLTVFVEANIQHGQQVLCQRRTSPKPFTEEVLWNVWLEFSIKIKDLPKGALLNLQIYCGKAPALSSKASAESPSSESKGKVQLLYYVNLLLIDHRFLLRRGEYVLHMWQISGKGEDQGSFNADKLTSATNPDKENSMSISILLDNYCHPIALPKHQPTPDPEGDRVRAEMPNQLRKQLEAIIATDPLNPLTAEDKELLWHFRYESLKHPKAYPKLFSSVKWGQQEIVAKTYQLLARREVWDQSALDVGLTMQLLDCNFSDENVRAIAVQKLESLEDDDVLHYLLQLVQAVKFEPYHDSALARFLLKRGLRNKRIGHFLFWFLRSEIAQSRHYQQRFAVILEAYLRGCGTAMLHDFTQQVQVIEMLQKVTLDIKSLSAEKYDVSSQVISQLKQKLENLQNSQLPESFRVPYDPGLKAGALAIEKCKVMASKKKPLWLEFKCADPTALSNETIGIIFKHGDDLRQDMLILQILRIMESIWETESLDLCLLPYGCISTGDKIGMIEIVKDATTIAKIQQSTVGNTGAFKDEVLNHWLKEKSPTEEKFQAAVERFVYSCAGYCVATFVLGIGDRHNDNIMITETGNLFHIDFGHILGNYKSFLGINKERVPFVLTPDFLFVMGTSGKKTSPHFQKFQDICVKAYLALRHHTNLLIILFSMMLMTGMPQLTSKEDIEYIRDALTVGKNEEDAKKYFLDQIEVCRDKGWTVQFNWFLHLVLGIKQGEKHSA
# Description: Kinase-Glo Luminescent Kinase assay (Promega) was performed to determine the PI3Kα inhibitory activity, while ADP-Glo Luminescent assay (Promega) was performed to identify the inhibitory activity against PI3Kβ, γ, or δ. The kinase buffer was composed of HEPES (50 mM, pH 7.5), MgCl2 (3 mM), EGTA (1 mM), NaCl (100 mM), CHAPS (0.03%) and DTT (2 mM). The serially diluted compound solutions […] were successively added to a 384-well plate. Afterwards, the solution of kinase […] in the kinase buffer and the solution of substrate (5 mL) in the kinase buffer containing PIP2 and ATP were added to each well of the assay plate for starting the reaction. Kinase buffer was added instead to the control well without enzyme. The final concentrations of PI3Kα, PI3Kβ, PI3Kγ, PI3Kδ, PIP2, and ATP in corresponding kinase reaction mixture were 1.65 nM, 4.8 nM, 7.6 nM, 5.7 nM, […], respectively. After being incubated at room temperature for 1 h, Kinase-Glo reagent […] was added to each well of the PI3Kα assay plate to quench the reaction. Subsequently, the mixture needs to be mixed briefly with centrifuge and shaken slowly for 15 min before being read on a plate reader for luminescence. As for PI3Kβ, γ, or δ, reaction mixture (5 mL) was transferred to a new 384-plate and ADP-Glo reagent (5 mL) was added for stopping the reaction. The mixture was treated briefly with centrifuge, shaken slowly, and equilibrated for 40 min. Kinase Detection reagent […] was added to each well. Before reading on a plate reader for luminescence, the resultant mixture was incubated at room temperature for 1 h. After calculating the percent inhibition from the RLU values, the curves were fitted in Graphpad Prism 5 to give IC50 values.
# [6] = test system: colorectal cancer HCT116 cell line; assay: Anti-proliferative SRB assay, HCT116; type: cell-based; conditions: 72 h exposure
# Description: as §1
# PI3Kα = PI3Kα (Homo sapiens, UniProt P42336); assay: PI3Kα enzymatic assay (Kinase-Glo Luminescent Kinase assay); type: biochemical
# Sequence of PI3Kα (P42336 whole entry): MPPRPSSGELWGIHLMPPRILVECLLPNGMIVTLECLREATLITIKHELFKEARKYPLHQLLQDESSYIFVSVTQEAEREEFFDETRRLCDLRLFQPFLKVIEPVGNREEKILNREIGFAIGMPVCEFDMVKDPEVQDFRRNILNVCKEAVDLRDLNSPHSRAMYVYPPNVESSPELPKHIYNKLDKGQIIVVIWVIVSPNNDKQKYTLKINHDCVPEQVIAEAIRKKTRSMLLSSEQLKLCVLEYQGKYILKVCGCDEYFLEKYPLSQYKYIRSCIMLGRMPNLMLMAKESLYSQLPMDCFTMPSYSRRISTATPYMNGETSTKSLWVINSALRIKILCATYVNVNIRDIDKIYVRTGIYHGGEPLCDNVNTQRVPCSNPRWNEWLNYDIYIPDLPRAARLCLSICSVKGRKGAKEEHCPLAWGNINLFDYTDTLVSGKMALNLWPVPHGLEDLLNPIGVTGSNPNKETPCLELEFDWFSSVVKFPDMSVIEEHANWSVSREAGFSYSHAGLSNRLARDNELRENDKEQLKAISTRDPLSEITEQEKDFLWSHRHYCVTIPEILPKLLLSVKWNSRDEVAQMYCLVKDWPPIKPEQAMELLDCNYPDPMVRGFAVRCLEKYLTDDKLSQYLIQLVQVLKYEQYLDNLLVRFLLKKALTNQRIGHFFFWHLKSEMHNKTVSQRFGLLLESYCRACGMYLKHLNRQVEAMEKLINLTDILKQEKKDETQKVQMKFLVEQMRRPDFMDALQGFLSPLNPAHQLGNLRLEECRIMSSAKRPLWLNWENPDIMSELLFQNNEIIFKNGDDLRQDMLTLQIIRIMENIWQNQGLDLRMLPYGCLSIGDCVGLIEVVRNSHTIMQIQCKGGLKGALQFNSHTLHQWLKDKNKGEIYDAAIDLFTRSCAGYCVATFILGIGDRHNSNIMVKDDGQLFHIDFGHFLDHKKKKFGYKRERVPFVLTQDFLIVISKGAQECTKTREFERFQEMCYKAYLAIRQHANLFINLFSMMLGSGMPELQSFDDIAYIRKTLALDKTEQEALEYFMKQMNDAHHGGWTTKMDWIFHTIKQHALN
# Sequence of PI3Kα (P27986 whole entry partner): as the sequence (P27986 whole entry partner) above
# Description: as §2
# [7] = test system: phos-Akt (Ser473), phos-Akt (Thr308), phos-S6 ribosomal protein (Ser235/236), phos-4E-BP1 (Thr37/46); assay: Western blot of PI3K/Akt/mTOR signaling biomarkers in PC3 cells; type: cell-based; conditions: 3 h treatment
# Description: The Western blot analysis for evaluating the capability to down-regulate phos-Akt (Ser473), phos-Akt (Thr308), phos-S6 ribosomal protein (Ser235/236), and phos-4E-BP1 (Thr37/46) in PC3 cells was performed according to the protocol disclosed in our previous study (Zhang et al., [2017a]) with a minor modification. The cells were seeded into six-well plate at 1 × 10^6 cells per well, and then incubated at 37°C (5% CO2) overnight prior to drug treatment.
# in vitro [8] = conditions: human, microsomes
# in vitro [9] = conditions: Sprague-Dawley, rat, microsomes
# Sequence of PI3Kδ (O00329 whole entry): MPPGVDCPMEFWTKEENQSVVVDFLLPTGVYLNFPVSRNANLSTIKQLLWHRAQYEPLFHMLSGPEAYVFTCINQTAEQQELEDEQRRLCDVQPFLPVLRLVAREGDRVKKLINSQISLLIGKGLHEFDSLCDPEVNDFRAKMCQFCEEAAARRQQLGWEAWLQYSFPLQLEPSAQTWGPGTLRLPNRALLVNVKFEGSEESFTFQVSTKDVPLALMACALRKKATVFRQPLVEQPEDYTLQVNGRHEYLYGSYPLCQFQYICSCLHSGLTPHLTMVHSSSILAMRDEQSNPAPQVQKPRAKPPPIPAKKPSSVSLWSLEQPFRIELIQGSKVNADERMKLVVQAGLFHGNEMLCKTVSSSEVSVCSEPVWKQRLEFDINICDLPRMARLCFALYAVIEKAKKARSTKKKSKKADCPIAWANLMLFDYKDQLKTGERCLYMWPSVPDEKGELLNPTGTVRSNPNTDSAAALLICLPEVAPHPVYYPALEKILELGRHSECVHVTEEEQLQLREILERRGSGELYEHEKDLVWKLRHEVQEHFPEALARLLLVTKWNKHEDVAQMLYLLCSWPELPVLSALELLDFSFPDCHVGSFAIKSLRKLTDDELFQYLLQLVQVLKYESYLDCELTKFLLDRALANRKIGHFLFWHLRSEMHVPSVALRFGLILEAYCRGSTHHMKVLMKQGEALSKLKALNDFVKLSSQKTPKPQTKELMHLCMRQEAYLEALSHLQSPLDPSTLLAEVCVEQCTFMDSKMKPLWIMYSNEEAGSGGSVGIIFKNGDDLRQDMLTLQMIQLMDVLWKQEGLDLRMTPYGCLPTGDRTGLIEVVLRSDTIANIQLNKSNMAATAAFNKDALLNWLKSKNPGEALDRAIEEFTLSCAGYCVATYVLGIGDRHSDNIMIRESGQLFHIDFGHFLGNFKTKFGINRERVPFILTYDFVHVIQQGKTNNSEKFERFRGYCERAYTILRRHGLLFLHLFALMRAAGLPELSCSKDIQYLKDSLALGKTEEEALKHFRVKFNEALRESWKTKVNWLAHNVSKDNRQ
# Sequence of PI3Kδ (P27986 whole entry partner): as the sequence (P27986 whole entry partner) above
compound,measurement,setting,value
"COc1ncc(-c2ccc3nccc(/C=C/C(=O)N4CCN(C)CC4)c3c2)cc1NS(=O)(=O)c1ccc(F)cc1F [8i, (E)-2,4-difluoro-N-(2-methoxy-5-(4-(3-(4-methylpiperazin-1-yl)-3-oxoprop-1-en-1-yl)quinolin-6-yl)pyridin-3-yl)benzenesulfonamide]",IC50,PI3Kδ,1 nM
same,CLint scaled,[1],16.6 mL/min/kg
same,half-life,[1],1.25 h
same,microsomal CLint,[1],18.5 µL/min/mg
same,remaining at 1 h,[1],57.1%
same,AUC(0-inf),[2],412 ng·h/mL
same,AUC(0-t),[2],379 ng·h/mL
same,Cmax,[2],249 ng/mL
same,half-life,[2]; read-out: elimination half-life t1/2 (converted),1.73 h
same,IC50,PI3Kβ,1.5 nM
same,CLint scaled,[3],< 17.3 mL/min/kg
same,half-life,[3],> 2.42 h
same,microsomal CLint,[3],< 9.6 µL/min/mg
same,remaining at 1 h,[3],72.8%
same,IC50 values against all the tested enzymes,PI3Ks and mTOR,sub-nanomolar or low nanomolar level
same,IC50,[4],1.3 nM
same,GI50,"[5]; Homo sapiens, PC-3, 72 h",< 500 nM
same,GI50,[5],400 nM
same,IC50,PI3Kγ,0.55 nM
same,GI50 HCT116,[6]; HCT116 cells,sub-micromolar
same,GI50,"[6]; Homo sapiens, HCT-116, HCT116 cells",470 nM
same,IC50,PI3Kα,0.5 nM
same,effect on the level of phos-Akt (Ser473) compared with GSK2126458,[7],stronger
same,"down-regulation of phos-Akt (Ser473), phos-Akt (Thr308), phos-S6 ribosomal protein (Ser235/236) and phos-4E-BP1 (Thr37/46)",[7]; at a concentration as low as 5 nM,dramatically down-regulated; also recorded: remarkably down-regulated
C[C@]12CC[C@H]3[C@@H](CCC4=CC(=O)CC[C@@]43C)[C@@H]1CC[C@@H]2O [Testosterone],CLint scaled,in vitro [8],91.1 mL/min/kg
same,remaining at 1 h,in vitro [8],4.8%
same,CLint scaled,in vitro [9],3780 mL/min/kg
